Experimental findings from ChEMBL document CHEMBL6182881, “Optimized ebselen derivatives as novel potent Escherichia coli β-glucuronidase covalent allosteric inhibitors” (Eur J Med Chem, 2025) are described below.

Series [1] has as its system Escherichia coli. Put plainly: Covalent allosteric inhibition of recombinant Escherichia coli beta-glucuronidase using PNPG as substrate at 10 uM incubated for 30 mins by absorbance based microplate reader assay relative to control.
Series [2] in a line: Covalent inhibition of Escherichia coli beta-glucurodinase.
Series [3] in a line: Binding affinity to Escherichia coli beta-glucuronidase assessed as inhibition constant.
Series [4] can be described thus: Covalent allosteric inhibition of recombinant Escherichia coli beta-glucuronidase using PNPG as substrate incubated for 30 mins by absorbance based microplate reader assay.
A short description of series [5]: Cytotoxicity against human HCT-116 cells assessed as cell viability at 5 uM incubated for 24 hrs by CCK-8 assay relative to control. Type of series: toxicity, cell-based. The conditions noted are these: read-out: Activity. Background: Tetrazolium assays rely on reduction of a dye to a coloured formazan, in cell work by metabolically active cells.
Series [6] has as its system Escherichia coli. Put plainly: Potency index, ratio of IC50 for amoxapine to test compound IC50 for covalent allosteric inhibition of recombinant Escherichia coli beta-glucuronidase using PNPG as substrate incubated for 30 mins by absorbance based microplate reader assay.
Series [7] can be described thus: Covalent reversible binding affinity to recombinant Escherichia coli beta-glucuronidase assessed as apparent inhibition constant incubated for 30 mins. The conditions noted are these: read-out: Ki(app).
Series [8] relates to Escherichia coli. Put plainly: Covalent binding affinity to recombinant Escherichia coli beta-glucuronidase at Cys197 residue by LC-MS/MS analysis.
Series [9] deals with Escherichia coli. The experiment in a line: Covalent reversible binding affinity to recombinant Escherichia coli beta-glucuronidase using PNPG as substrate at 10 times IC50 pre-incubated for 30 mins followed by substrate addition by jump dilution assay.
For series [10], the system named is Escherichia coli. The experiment in a line: Covalent binding affinity to recombinant Escherichia coli beta-glucuronidase at Cys443 residue by LC-MS/MS analysis.
For series [11], the system named is Escherichia coli. Put plainly: Covalent binding affinity to recombinant Escherichia coli beta-glucuronidase at Cys28 residue by LC-MS/MS analysis.
The subject of series [12] is Escherichia coli. The experiment in a line: Covalent irreversible binding affinity to recombinant Escherichia coli beta-glucuronidase using PNPG as substrate at 10 times IC50 pre-incubated for 30 mins followed by substrate addition by jump dilution assay.
The subject of series [13] is Escherichia coli. The experiment in a line: Covalent irreversible binding affinity to recombinant Escherichia coli beta-glucuronidase assessed as kinact/ki ratio incubated for 30 mins.
Series [14] relates to Escherichia coli. Put plainly: Covalent irreversible binding affinity to recombinant Escherichia coli beta-glucuronidase assessed as inactivation constant incubated for 30 mins.
Series [15] in a line: Covalent irreversible binding affinity to recombinant Escherichia coli beta-glucuronidase assessed as inhibition constant incubated for 30 mins.

SMILES strings stand for the structures. Active and inactive are the calls of the source. No cut-off for these calls is given here.

The inhibition is the relative decrease from the control value, in per cent. With `O=c1c2ccccc2[se]n1C1CCCCC1`, in series [1], the inhibition was less than 90%.
The same measure, in the same setting: under `O=c1c2ccccc2[se]n1-c1cnc2[nH]ncc2c1` stands less than 90%; under `O=c1c2ccccc2[se]n1-c1nnc(CC(F)(F)F)s1`, 6.11%.
By IC50 is commonly meant the concentration that gives 50% inhibition. On to `Oc1ccccc1-c1nc2cc(Cl)cc(Cl)c2[nH]1`, for which the IC50 in series [2] was determined as 4480 nM.
`O=c1c2ccccc2[se]n1-c1ccccn1`: in series [1], the inhibition was less than 90%.
`Clc1ccc2c(c1)C(N1CCNCC1)=Nc1ccccc1O2` [AMOXAPINE]: in series [3], the Ki was determined as 180 nM. In addition, in series [4], the IC50 was 202 nM. For the same molecule, the inhibition in series [1] worked out at 88.9%.
Consider `O=c1c2ccccc2[se]n1-c1nnc(C2CCCC2)s1`, for which the inhibition in [1] is less than 90%.
The same measure, in the same setting: the value for `O=c1c2ccccc2[se]n1-c1cccnc1` was more than 90%; that for `O=c1c2ccccc2[se]n1-c1cc(C2CC2)[nH]n1` was less than 90%.
`Cc1nnc(-n2[se]c3ccccc3c2=O)o1`: the IC50 in series [4] is 116 nM. Besides, in [1], the inhibition stood at 97.5%.
With `CCCc1nnc(-n2[se]c3ccccc3c2=O)s1`, the inhibition in series [1] is less than 90%.
For the molecule `O=c1c2ccccc2[se]n1-c1nnc(C(F)(F)F)s1`, in series [4], the IC50 worked out at 188 nM. The inhibition in [1] is 93.7%.
`Cc1ccc2c(=O)n(Cc3ccccc3)[se]c2c1`: in [1], the inhibition is less than 90%.
On the same count and under the same terms, under `Cc1cc(-n2[se]c3ccccc3c2=O)n[nH]1` stands less than 90%; under `CCc1nnc(-n2[se]c3ccccc3c2=O)s1`, less than 90%.
The same measure, in the same setting: the value for `COc1ccc(-n2[se]c3ccccc3c2=O)cc1` was less than 90%.
Turning to `COC(=O)[C@H](Cc1ccc(O)cc1)n1[se]c2ccccc2c1=O`, in series [4], the IC50 was 21.2 nM. Besides, the inhibition in [1] is 96.9%. The viability at 24 h, 5 µM in series [5] was found to be 86.2%.
As to `COC(=O)[C@H](CC(C)C)NC(=O)Cn1[se]c2ccccc2c1=O`, in series [1], the inhibition was more than 90%.
Same read-out and setting: under `O=c1c2ccccc2[se]n1-c1ccc(C(F)(F)F)cc1` stands less than 90%; under `O=c1c2ccccc2[se]n1-c1ccccc1`, less than 90%; under `O=c1c2ccccc2[se]n1-c1ccc2[nH]ncc2c1`, less than 90%.
As to `O=c1c2ccccc2[se]n1-c1ccc(F)cc1`, the inhibition in series [1] is more than 90%.
As to `O=c1c2ccccc2[se]n1-c1cn[nH]c1`, the Ratio IC50 in series [6] is 15.6. In addition, in series [7], the Ki is 23.3 nM. For the same molecule, in series [4], the IC50 worked out at 12.9 nM. Moreover, in series [1], the inhibition turned out to be 98.3%. For the same molecule, in [5], the viability at 24 h, 5 µM stood at 71.5%. Besides, the outcome in series [8], in series [9], in series [10] and in series [11] was Active.
With `O=c1c2ccccc2[se]n1CC(F)(F)F`, the IC50 in [4] was 76.9 nM. Besides, the inhibition in series [1] came to 94.7%.
Turning to `O=c1c2ccccc2[se]n1-c1ccc(Cl)cc1`, in series [4], the IC50 was 127 nM. Besides, the inhibition in [1] turned out to be 94.3%.
Take `COC(=O)[C@H](CSC)n1[se]c2ccccc2c1=O`: the inhibition in series [1] was more than 90%.
Same read-out and setting: under `COC(=O)[C@H](Cc1c[nH]c2ccccc12)n1[se]c2ccccc2c1=O` stands more than 90%.
For `O=C(O)c1ccc(-n2[se]c3ccccc3c2=O)cc1`, the IC50 in series [4] was found to be 55.7 nM. For the same molecule, the inhibition in series [1] stood at 96.8%. In addition, the viability at 24 h, 5 µM in series [5] turned out to be 86.2%.
Consider `CN1CCC(n2[se]c3ccccc3c2=O)CC1`, for which the IC50 in series [4] was 58.5 nM. Moreover, in series [1], the inhibition was 93.9%.
Turning to `O=c1c2ccccc2[se]n1C12CC3CC(CC(C3)C1)C2`, the inhibition in series [1] was less than 90%.
On the same count and under the same terms, under `O=c1[nH][se]c2ccc(C(F)(F)F)cc12` stands less than 90%; under `C=CCn1[se]c2ccccc2c1=O`, more than 90%.
On to `COC(=O)c1ccc2c(=O)n(-c3cccc4cccnc34)[se]c2c1`, for which the IC50 in series [4] was 63.4 nM. In addition, the inhibition in series [1] came out at 98.4%.
For the molecule `CN(C)CCn1[se]c2ccccc2c1=O`, the inhibition in [1] is more than 90%.
As to `O=c1c2ccccc2[se]n1-c1nccs1`, the inhibition in series [1] was less than 90%.
Still for that read-out and setting: the value for `O=c1c2ccccc2[se]n1-c1ccc2[nH]ccc2c1` was more than 90%.
Same read-out and setting: the value for `O=c1c2ccccc2[se]n1-c1ncc(C(F)(F)F)cc1Cl` was less than 90%; that for `CC(C)c1nnc(-n2[se]c3ccccc3c2=O)s1` was less than 90%.
With `COC(=O)[C@H](CCCCNC(=O)OC(C)(C)C)n1[se]c2ccccc2c1=O`, the IC50 in [4] came out at 66.5 nM. The inhibition in series [1] is 94.4%. In [5], the viability at 24 h, 5 µM amounted to 86.2%.
On to `O=c1c2cc(Br)ccc2[se]n1-c1ccccc1`, for which, in [1], the inhibition is less than 90%.
`O=c1c2ccccc2[se]n1-c1nncs1`: the inhibition in series [1] was less than 90%.
`Cn1cc(-n2[se]c3ccccc3c2=O)cn1`: the half-maximal inhibitory concentration (IC50) in series [4] came out at 42.1 nM. For the same molecule, the inhibition in series [1] came out at 94.8%.
`CC(=O)OC[C@H]1O[C@@H](n2cnc3c(-n4[se]c5ccccc5c4=O)ncnc32)[C@H](OC(C)=O)[C@@H]1OC(C)=O`: the outcome in series [12] and in series [8] was Active. In addition, the IC50 in series [4] turned out to be 73.4 nM. In [1], the inhibition is 98.8%. The K in [13] was determined as 21300 M⁻¹ s⁻¹. In [14], the Kinact came out at 7.6 min⁻¹. Also, the viability at 24 h, 5 µM in [5] was determined as 81%. The Ki in series [15] stood at 5950 nM.
As to `C=CCCn1[se]c2ccccc2c1=O`, the inhibition in series [1] is less than 90%.
Consider `CNC(=O)c1cc(Oc2ccc(-n3[se]c4ccccc4c3=O)cc2)ccn1`, for which the IC50 in series [4] was determined as 446 nM. For the same molecule, in series [1], the inhibition is 96.2%. In addition, the viability at 24 h, 5 µM in series [5] is 86.2%.
With `Cc1nnc(-n2[se]c3ccccc3c2=O)s1`, the inhibition in series [1] is less than 90%.
In the case of `CC(C)(C)c1nnc(-n2[se]c3ccccc3c2=O)s1`, in [1], the inhibition was more than 90%.
As for `COC(=O)[C@H](CO)n1[se]c2ccccc2c1=O`, the IC50 in series [4] stood at 48.2 nM. In addition, in [1], the inhibition was found to be 93.8%. Also, in [5], the viability at 24 h, 5 µM was determined as 86.2%.
For the molecule `O=c1[nH][se]c2ccccc12`, the inhibition in series [1] is 72.1%.
As to `O=c1c2ccccc2[se]n1CCO`, the IC50 in [4] is 18.3 nM. In addition, in [1], the inhibition amounted to 96.2%. Further, the viability at 24 h, 5 µM in series [5] amounted to 86.2%.
Regarding `O=c1c2ccccc2[se]n1-c1nnc(C2CCC(F)(F)CC2)s1`, in series [1], the inhibition is less than 90%.
On the same count and under the same terms, under `CCn1[se]c2ccccc2c1=O` stands less than 90%.
